Like-named read-outs stand apart in the source and are kept apart here.
What was measured:
FLT3 [1] = target: FLT3 (Homo sapiens, UniProt P36888); assay: Cellular thermal shift assay (CETSA / ITDRF CETSA) in MV4-11 cells; assay type: binding
Description: All studies were performed with the Super Streptavidin (SSA) biosensors (CA, USA). All binding experiments were performed according to the manufacturer's instructions. For the cellular thermal shift assay (CETSA), experiments were performed as described previously.
A concentration range from 0.3 nM to 1000 nM was defined (Figure 1B). […] CETSA has been used to identify FLT3-LT-171-861 interactions in live cell settings. […] We first verified that the inhibitor could stabilize FLT3 against denaturation using Western blot. […] An obvious thermal shift of the melting curve was detected in the LT-171-861-treated sample (Figure 1C). […] Accordingly, we identified 53 °C as the optimal temperature for isothermal […] fingerprint (ITDRF) CETSA.
(A) Chemical structure of LT-171-861. […] Data were then fitted to obtain KD value. […] Data were first normalized by setting the highest and lowest value in each set to 100% and 0% respectively. Data were obtained in the presence of the LT-171-861 (blue circle) as positive the control and DMSO (red square) as the negative control. All experiments were performed at three independent occasions and data are given as the mean ± SD. […] Cell viability was evaluated by MTT assay respectively. The IC50 values were calculated using nonlinear regression.
Target sequence in this assay (P36888 27-993, stated change not applied): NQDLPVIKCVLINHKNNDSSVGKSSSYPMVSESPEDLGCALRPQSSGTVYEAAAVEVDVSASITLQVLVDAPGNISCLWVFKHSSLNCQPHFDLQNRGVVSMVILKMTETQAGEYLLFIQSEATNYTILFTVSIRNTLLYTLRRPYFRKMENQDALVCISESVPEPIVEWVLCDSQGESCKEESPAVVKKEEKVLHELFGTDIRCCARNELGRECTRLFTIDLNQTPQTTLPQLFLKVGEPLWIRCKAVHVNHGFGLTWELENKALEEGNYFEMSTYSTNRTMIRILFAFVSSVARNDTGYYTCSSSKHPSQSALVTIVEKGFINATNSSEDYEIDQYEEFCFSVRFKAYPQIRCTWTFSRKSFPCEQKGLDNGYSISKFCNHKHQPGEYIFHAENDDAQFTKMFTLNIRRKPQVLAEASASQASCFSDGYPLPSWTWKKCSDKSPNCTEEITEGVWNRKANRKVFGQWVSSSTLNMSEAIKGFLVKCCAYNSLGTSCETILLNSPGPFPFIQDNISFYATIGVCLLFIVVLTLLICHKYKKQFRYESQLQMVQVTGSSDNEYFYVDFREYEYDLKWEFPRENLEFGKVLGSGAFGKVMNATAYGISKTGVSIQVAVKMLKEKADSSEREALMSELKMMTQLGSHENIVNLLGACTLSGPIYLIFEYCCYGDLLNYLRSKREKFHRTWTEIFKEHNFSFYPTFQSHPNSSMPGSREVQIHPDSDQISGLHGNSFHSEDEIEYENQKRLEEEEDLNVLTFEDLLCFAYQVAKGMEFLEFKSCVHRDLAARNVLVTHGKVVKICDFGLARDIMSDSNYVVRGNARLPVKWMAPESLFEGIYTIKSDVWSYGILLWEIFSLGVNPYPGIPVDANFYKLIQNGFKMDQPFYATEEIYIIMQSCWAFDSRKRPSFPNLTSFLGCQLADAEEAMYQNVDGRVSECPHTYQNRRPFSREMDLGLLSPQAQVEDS

FLT3 [2] = assay: PD study in subcutaneous MV4-11 xenograft mice; assay type: in vivo, BALB/c nude mice; conditions: single dose 10 mg/kg intravenous
Description: An MV4-11 cell tumor model was established by subcutaneous injection. Six-week-old female BALB/c nude mice were used for the subcutaneous model. […] Mice were sacrificed and tumor tissues were freshly dissected, homogenized, and centrifuged at 16000 g for 20 min. The phosphorylation levels of FLT3 were measured by Western blot.
Blue square and solid line represent intravenous injection administration. […] Mice were sacrificed at indicated time points and then tumor tissues were dissected and lysed. Phosphorylation levels of FLT3, STAT5 and ERK1/2 were measured by western blotting. (C) Bone marrow mononuclear cells (BMMCs) were isolated from healthy C57BL/6 mice. […] Apoptosis assays were conducted after 36-hour incubation. […] 24 h after the last administration, c-Kit^+ cells were evaluated by flow cytometry. […] Data were shown with mean±SD.

[3] = test system: BaF3 cells with FLT3-ITD/Y842C; assay: Cell viability of transformed BaF3 cells; assay type: cell-based, murine; conditions: Mus musculus, read-out: BaF3 cells with FLT3 mutants IC50 ITD-Y842C
Description: (§1) Lentivirus packaging and construction of transformed BaF3 cells were performed as described previously. […] Supernatants were collected and used to infect BaF3 cells, and transduced BaF3 cells were selected with puromycin (1 μg/ml) to obtain stably transformed cells.
(§2) The conditional medium (CM) was prepared from the supernatant of HS-5 cell culture for 5 days under normal culture conditions. At the indicated time point, cell viability was evaluated by MTT assay.

[4] = test system: BaF3 cells with FLT3-D835Y; assay: Cell viability of transformed BaF3 cells; assay type: cell-based, murine; conditions: Mus musculus, read-out: BaF3 cells with FLT3 mutants IC50 D835Y
Description: as §1, §2

BaF3 cells with FLT3-ITD = assay: Cell viability of transformed BaF3 cells; assay type: cell-based, murine; conditions: Mus musculus, read-out: BaF3 cells with FLT3 mutants IC50 ITD
Description: as §1, §2

[5] = test system: BaF3 cells with FLT3-ITD/F691L; assay: Cell viability of transformed BaF3 cells; assay type: cell-based, murine; conditions: Mus musculus, read-out: BaF3 cells with FLT3 mutants IC50 ITD-F691L
Description: as §1, §2

[6] = test system: BaF3 cells with FLT3-ITD/N676D; assay: Cell viability of transformed BaF3 cells; assay type: cell-based, murine; conditions: Mus musculus, read-out: BaF3 cells with FLT3 mutants IC50 ITD-N676D
Description: as §1, §2

[7] = test system: BaF3 cells with FLT3-ITD/D835Y; assay: Cell viability of transformed BaF3 cells; assay type: cell-based, murine
Description: as §1, §2

MOLM13 = assay: Cell proliferation MTT assay; assay type: cell-based; conditions: Homo sapiens, MOLM-13, 72 h, read-out: Human leukemia cell line IC50 MOLM13
Description: as §2

[8] = test system: BaF3 cells transfected with FLT3-ITD-N676D and FLT3-ITD-F691L; assay: Subcutaneous xenograft with transfected BaF3 cells; assay type: in vivo, BALB/c nude mice; conditions: 10 mg/kg every other day for 16 days
Description: Data were shown as mean±SD. […] Data were shown as mean±SD. (C) An engrafted tumor model was used to evaluate in vivo antitumor activity. The NOD/SCID mice were intravenously inoculated with MV4-11 cells. […] Log-rank testing was used to compare survival curves among treatment groups. […] (D) Apoptotic assays in engraft model were evaluated by TUNEL assay and cell proliferative activity was measured by Ki67 assay. Images were acquired at ×40 magnification. (E) BALB/c nude mice were subcutaneously inoculated with MV4-11 cells (5×10^6) and bodyweight of each mouse was recorded every other day. (F) Representative photo of tumors from BALB/c nude mice which were inoculated with MV4-11 cells. (G) BALB/c nude mice were subcutaneously inoculated with BaF3 cells bearing FLT3-ITD-N676D (n=6) and FLT3-ITD-F691L (n=6) respectively. […] (H) BALB/c mice were intravenously inoculated with cells used in (G). […] Log-rank testing was used to compare survival curves among treatment groups. […] (I) Representative photos of spleens dissected from mice in (H) inoculated with BaF3 cells bearing FLT-3-ITD-F691L.
Cells were injected into the tail vein of BALB/c nude mice and allowed to engraft for 5 days. […] This schedule was repeated for 8 cycles.

FLT4/VEGFR3 = target: T1, FLT4/VEGFR3 (Homo sapiens, UniProt P35916); assay: Kinase inhibition assay (Reaction Biology); assay type: biochemical
T1 construct: purchased Reaction Biology Corporation (PA, USA)

FLT3 [9] = target: T2, FLT3 (Homo sapiens, UniProt P36888); assay: Kinase inhibition assay (Reaction Biology); assay type: biochemical
T2 construct: purchased Reaction Biology Corporation (PA, USA)
T2 sequence (P36888 27-993): as the sequence (P36888 27-993, stated change not applied) above

T1 sequence (P35916 25-1363): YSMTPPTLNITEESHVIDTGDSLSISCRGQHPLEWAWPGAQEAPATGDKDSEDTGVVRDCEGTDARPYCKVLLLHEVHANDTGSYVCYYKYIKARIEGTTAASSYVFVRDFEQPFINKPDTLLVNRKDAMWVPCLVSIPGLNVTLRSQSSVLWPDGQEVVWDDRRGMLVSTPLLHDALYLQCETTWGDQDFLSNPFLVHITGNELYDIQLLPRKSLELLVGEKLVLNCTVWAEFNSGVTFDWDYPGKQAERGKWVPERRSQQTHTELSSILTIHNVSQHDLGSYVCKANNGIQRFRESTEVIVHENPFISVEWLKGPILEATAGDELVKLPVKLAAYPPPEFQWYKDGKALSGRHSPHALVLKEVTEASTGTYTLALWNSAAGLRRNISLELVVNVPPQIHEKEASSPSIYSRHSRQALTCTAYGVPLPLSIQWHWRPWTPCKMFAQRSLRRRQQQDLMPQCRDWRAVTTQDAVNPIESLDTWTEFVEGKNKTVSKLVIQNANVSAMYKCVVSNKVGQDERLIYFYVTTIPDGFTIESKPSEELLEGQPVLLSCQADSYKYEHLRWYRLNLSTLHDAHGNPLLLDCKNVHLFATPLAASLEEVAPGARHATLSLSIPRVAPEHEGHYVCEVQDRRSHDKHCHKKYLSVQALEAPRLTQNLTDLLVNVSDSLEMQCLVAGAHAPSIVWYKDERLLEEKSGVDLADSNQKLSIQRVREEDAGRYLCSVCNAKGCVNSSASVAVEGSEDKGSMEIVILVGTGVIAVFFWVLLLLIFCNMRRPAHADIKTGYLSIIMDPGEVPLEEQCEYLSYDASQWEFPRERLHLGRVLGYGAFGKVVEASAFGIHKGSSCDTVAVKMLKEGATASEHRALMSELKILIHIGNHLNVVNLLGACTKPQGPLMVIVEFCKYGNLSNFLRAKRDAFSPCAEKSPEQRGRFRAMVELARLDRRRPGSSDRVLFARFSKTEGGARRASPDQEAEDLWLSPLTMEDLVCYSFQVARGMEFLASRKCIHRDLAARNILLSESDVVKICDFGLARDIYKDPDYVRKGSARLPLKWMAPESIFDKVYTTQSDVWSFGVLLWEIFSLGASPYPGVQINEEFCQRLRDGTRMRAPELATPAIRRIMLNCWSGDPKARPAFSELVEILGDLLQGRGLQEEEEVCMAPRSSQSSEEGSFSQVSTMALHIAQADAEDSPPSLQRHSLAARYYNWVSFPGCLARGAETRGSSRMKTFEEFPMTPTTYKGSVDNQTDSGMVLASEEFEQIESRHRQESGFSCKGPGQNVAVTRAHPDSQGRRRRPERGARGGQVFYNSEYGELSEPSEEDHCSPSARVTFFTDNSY

For `CN1CCN(Cc2ccc(NC(=O)c3n[nH]cc3Nc3ncnc4[nH]ccc34)cc2)CC1` [LT-171-861], the Kd (FLT3 [1]; 1 h, 53 °C, read-out: fitted Kd value (ITDRF CETSA)) was 78.5 nM, the “apparent aggregation temperature (Tagg) for FLT3” value (FLT3 [1]; LT-171-861 10 µM 1 h, 49.11 °C without LT-171-861) was 52.91 °C and the “duration of inhibition of FLT3 autophosphorylation and downstream effectors” value (FLT3 [2]) was 24 h. For the same compound, the “inhibition of p-FLT3, p-STAT5 and p-ERK1/2 in tumor” value (FLT3 [2]; western blot) was “sustained inhibition”, the IC50 [3] was 18.8 nM and the IC50 [4] was 23.3 nM. For the same compound, the IC50 (BaF3 cells with FLT3-ITD) was 4.1 nM, the IC50 [5] was 7.65 nM and the IC50 [6] was 47.5 nM. The “IC50 lower than that of sorafenib in cells bearing ITD-D835Y mutations” value ([7]; BaF3 FLT3-ITD-D835Y) was ~16 fold, the IC50 ([7]; Mus musculus, BaF3, cell viability, read-out: BaF3 cells with FLT3 mutants IC50 ITD-D835Y) was 57.2 nM and the IC50 (MOLM13) was 1.3 nM. The tumor growth [8] was “inhibited tumor growth”, the IC50 (FLT4/VEGFR3) was 1.24 nM and the IC50 (FLT3 [9]) was < 1 nM. For the same compound, the IC50 (FLT3 [9]; 10 μM ATP, 10-dose IC50 mode) was 0.234 nM.
